Legend:
[1] = test system: transgenic wild-type (WT) and GPR119 knock-out (KO) mice; assay: Effect on circulating GLP-1 and GIP in wild-type and GPR119 knock-out mice; assay type: in vivo; conditions: 30 mg/kg oral gavage; for incretin hormone levels (total GLP-1 and GIP): 60 min after dosing
Protocol: 17 weeks old male transgenic wild-type (WT) and GPR119 knock-out (KO) mice (Charles River Laboratories, USA) were fasted overnight then randomly distributed into two treatment groups for each genotype with n=8 and n=10 animals per treatment group for KO and WT mice respectively. Animals received either vehicle (0.5% HPMC/0.1% Tween80) or a GPR119 agonist (Example 1) at a dose of 30 mg/kg (10 mL/kg), administered by oral gavage. Sixty minutes after the oral gavage the mice were anesthetized using isofluorane and a blood sample was collected by cardiac puncture, before sacrificing the animal by cervical dislocation. Blood samples were treated as described above for determination of incretin hormone levels. Plasma glucose levels were measured using an Olympus AU640 analyzer (Olympus America Inc, Melville, N.Y.), and insulin levels an electrochemoluminescence assay (Bioveris, Gaithersburg Md.).
Data is represented as box plots summarizing the distribution of data for each treatment group, as described above. Horizontal lines represent the mean data. FIG. 3 and FIG. 4 show total GLP-1 and GIP levels measured in circulation following administration of vehicle or 30 mg/kg GPR119 agonist (Example 1) in WT and KO mice.

[2] = test system: Male Sprague-Dawley rats; assay: Effect on circulating GLP-1 and GIP in vivo in rats; conditions: 10 mg/kg oral
Protocol: On the day before the experiment, food was removed in the afternoon and the following morning animals were randomly assigned to two treatment groups, vehicle (n=7) or a GPR119 agonist (Example 1; n=8). Blood samples were collected prior to, and 90 minutes following oral administration of either vehicle (0.5% HPMC/0.1% Tween80) or 10 mg/kg of Example 1. Blood samples were treated as described above and analyzed for incretin hormones, plasma glucose and insulin. The rats were sacrificed at the end of the study by an overdose of Nembutal® pentobarbital.
Data is represented as line graphs of the measurements prior to gavage (Pre) and 90 min following administration of vehicle or GPR119 agonist (Post) analyzed for total GLP-1 (FIG. 7), total GIP (FIG. 8), plasma glucose (FIG. 9) and insulin (FIG. 10) for individual animals.

[3] = test system: male C57BL/6 mice; assay: Oral glucose tolerance in normal mice; assay type: in vivo; conditions: fasted mice, Example 1 30 mg/kg, DPPIV inhibitor 10 mg/kg oral, 2 g/kg dextrose oral 1 h after dosing
Protocol: Nine weeks old male C57BL/6 mice (Taconic farms, USA) were fasted overnight and randomly assigned to three different treatment groups (n=9-10 per treatment arm) to receive vehicle (0.5% HPMC/0.1% Tween80), a GPR119 agonist (Example 1, 30 mg/kg) or a positive control (10 mg/kg), specifically a DPPIV inhibitor known to improve glucose tolerance in vivo by preventing degradation of the GLP-1 and GIP. Vehicle or compounds were delivered by oral gavage at a volume of 10 mL/kg, and the tip of tail was nicked using a scalpel to allow whole blood glucose measurements. One hour after administration of vehicle or test compounds, 2 g/kg of dextrose was administered by oral gavage. Whole blood glucose levels were determined from the abrasion at the tip of the tail at time points as indicated in FIG. 16 using a Glucometer (Freestyle, Therasense). At the end of the study the mice were sacrificed by cervical dislocation.

[4] = test system: Male Sprague-Dawley rats; assay: Oral glucose tolerance in rats; assay type: in vivo; conditions: fasted rats, 10 mg/kg oral
Protocol: Eight weeks old male Sprague-Dawley rats had catheters surgically implanted into the jugular […] vein and allowed to recover for one week. Food was removed in the afternoon the day before the experiment to fast animals overnight. The following morning animals were randomly assigned to treatment groups to receive vehicle (n=7) (0.5% HPMC/0.1% Tween80), a GPR119 agonist (Example 1, 10 mg/kg) or a positive control (10 mg/kg), namely a DPPIV inhibitor as described above. Vehicle and compounds were delivered by oral gavage at a volume of […]. Two and a half hours after administration of vehicle or GPR119 agonist and one hour administration of DPPIV inhibitor, 2 g/kg dextrose was administered orally. […] The tubes were immediately centrifuged, plasma collected for subsequent measurement of glucose and hormone levels and stored at −80° C. Plasma glucose, insulin and total GLP-1 levels were measured as described above.
The data is represents as mean values±SEM from all animals within each treatment group.

[5] = test system: Male Sprague Dawley rats; assay: Whole body insulin sensitivity, euglycemic hyperinsulinemic clamp in rats; assay type: in vivo; conditions: 10 mg/kg oral
Protocol: Male Sprague Dawley rats, weighing at 300-350 gram, had catheters surgically implanted into the jugular and femoral veins and allowed to recover for one week following the surgery. On the day before the experiment, food was removed in the afternoon to fast the animals overnight. The following morning animals were randomly assigned to two treatment groups, vehicle (n=7) and or 10 mg/kg of a GPR119 agonist (Example 1, n=9). Blood samples were collected from the jugular vein for baseline glucose measurements prior to oral administration of the respective treatment. The euglycemic hyperinsulinemic clamp was initiated approximately 90 minutes following oral administration of the respective treatments, by starting the constant insulin infusion at a rate of 1 mU/kg/min human insulin (Humulin, Eli Lilly and Company, Indianapolis, Id.) into the femoral vein of conscious animals. Whole blood glucose levels were measured every 10 minutes throughout the clamp. As the plasma glucose levels began to fall exogenous glucose infusion was started at a variable rate adjusted to achieve a stable plasma glucose level of 90-100 mg/dl. The glucose infusion rate required to maintain euglycemia was recorded throughout the experiment for each animal, and represents a measure of insulin sensitivity. Plasma glucose and human insulin levels were measured at the end of the clamp (at 180 min) as described above. At the end of the study the rats were sacrificed by an overdose of Nembutal.
Data is represented as box plots summarizing the distribution of data for each treatment group, as described above. Horizontal lines represent the mean data. […] The data is represented as mean GIR±SEM. At steady state, 180 minutes after starting the clamp, the glucose infusion rate required to maintain euglycemia in Example 1 treated animals were three times that of vehicle treated animals.

[6] = fasted rats, 90 min after dosing vs pre-dose
[7] = rats, 90 min, vs vehicle or baseline
[8] = rats, end of clamp (180 min), between treatment groups

CC(C)OC(=O)N1CCC(Oc2ncnc3c2CCN3c2ccc(S(C)(=O)=O)cc2F)CC1 [Example 1, 1-Methylethyl 4-({7-[2-fluoro-4-(methylsulfonyl)phenyl]-6,7-dihydro-5H-pyrrolo[2,3-d]pyrimidin-4-yl}oxy)-1-piperidinecarboxylate]
incretin hormone levels (total GLP-1 and GIP) ([1]; GPR119 knock out mice): without effect
fasting glucose levels ([1]; WT and KO mice, 60 min): not affected
fasting insulin levels ([1]; WT and KO mice, 60 min): not affected
incretin hormone levels (total GLP-1 and GIP) ([1]; WT mice): increase
circulating levels of total GIP [2, 6]: increases
circulating levels of total GLP-1 [2, 6]: increases
fasting glucose [2, 7]: not significantly affected
fasting insulin [2, 7]: not significantly affected
glucose disposal during the oral glucose tolerance test (whole blood glucose) [3]: significantly enhanced
reduction of total glucose area under the curve (AUC) ([4]; Example 1 2.5 h and DPPIV inhibitor 1 h before 2 g/kg dextrose oral): 38%
glucose excursion during the 120 minutes oral glucose tolerance test ([4]; Example 1 2.5 h and DPPIV inhibitor 1 h before 2 g/kg dextrose oral, vs vehicle): significantly decreased
baseline total GLP-1 ([4]; before the oral glucose load, compared to vehicle and DPPIV treated animals): significantly increased
Insulin AUC ([4]; oral glucose tolerance test, between treatment groups): not significantly different
total GLP-1 AUC ([4]; oral glucose tolerance test, compared to vehicle and DPPIV treated animals): significantly increased
whole body insulin sensitivity ([5]; normal rats, euglycemic hyperinsulinemic clamp): enhances
euglycemia (plasma glucose at the end of the clamp) [5, 8]: no significant difference
steady state insulin exposure [5, 8]: no significant difference
glucose infusion rate required to maintain euglycemia, relative to vehicle ([5]; rats, steady state 180 minutes after starting the clamp, insulin 1 mU/kg/min): three times
